Values of other authors, collected in US20030157104A1, “Treatment of refractory human tumors with epidermal growth factor receptor antagonists” (priority 1999, published 2003).

System: FGFR
Conditions: Panek et al.

inhibition of FGFR family of receptors: inhibits
Compound: CCN(CC)CCOc1ccc(Nc2ncc3cc(-c4c(Cl)cccc4Cl)c(=O)n(C)c3n2)cc1 [PD166285, 6-(2,6-dichlorophenyl)-2-(4-(2-diethylaminoethoxy)phenylamino)-8-methyl-8H-pyrido(2,3-d)pyrimidin-7-one]
